Assay results reported in patent US10882837B2, “Amide compounds and use thereof” (ALPHALA CO., LTD., priority 2017, dated 2021).

Legend:
GCGR = GCGR (Homo sapiens, UniProt P47871); test: I125-glucagon binding assay (competition, GCGR membrane fractions); set-up: expressed in transfected cells; host or cells: CHO-K1; inhibition: dose or concentration left out as unconfirmed; conditions: for IC50: competition with I125-glucagon 0.0625 nM, membrane fractions from GCGR overexpressed CHO-K1 cells
Method: I^125-Glucagon Binding Assay
The binding affinity of each compound was evaluated by a competition assay with I^125-glucagon. GCGR membrane fractions were obtained from GCGR overexpressed CHO-K1 cells as a stock of 1 mg/ml concentration. To evaluate the IC50 of compounds binding to GCGR, GCGR membrane fractions were treated with compounds with a serial dilution. The membrane fractions were diluted to 7.5 microgram per well in 70 microliter assay buffer contained 50 mM Tris pH 7.4 and 0.5% (w/v) bovine serum albumin and added into 96 wells plate. The membrane fractions were then mixed with 10 microliter diluted compounds. After 5 minutes pre-incubation, 20 microliter I^125 labeled glucagon (Perkin Elmer) was added into each well at the final concentration of 0.0625 nM. The assay mixtures were incubated at 25° C. for 30 minutes and then transferred onto the Millipore Multiscreen GF/B Plate coated with 0.5% (w/v) Polyethyleneimine. The filter plate was washed with wash buffer contained 50 mM Tris pH 7.4 for 2 times, 300 microliter each time. The residual isotope was detected by Hidex CHAMELEON V micro-beta counter and the IC50 value of each compound binding to GCGR was calculated with non-linear regression.

glucagon receptor (GCGR) = biological target: T1, glucagon receptor (GCGR) (Homo sapiens, UniProt P47871); test: Glucagon cAMP inhibition assay (Cisbio cAMP Dynamic 2 HTRF); assay type: cell-based; conditions: GCGR overexpressed CHO-K1 cells or human primary hepatocytes (not specified); glucagon at EC50
T1 construct: expressed in transfected cells; host or cells: CHO-K1
T1 sequence (P47871 26-477, species assumed): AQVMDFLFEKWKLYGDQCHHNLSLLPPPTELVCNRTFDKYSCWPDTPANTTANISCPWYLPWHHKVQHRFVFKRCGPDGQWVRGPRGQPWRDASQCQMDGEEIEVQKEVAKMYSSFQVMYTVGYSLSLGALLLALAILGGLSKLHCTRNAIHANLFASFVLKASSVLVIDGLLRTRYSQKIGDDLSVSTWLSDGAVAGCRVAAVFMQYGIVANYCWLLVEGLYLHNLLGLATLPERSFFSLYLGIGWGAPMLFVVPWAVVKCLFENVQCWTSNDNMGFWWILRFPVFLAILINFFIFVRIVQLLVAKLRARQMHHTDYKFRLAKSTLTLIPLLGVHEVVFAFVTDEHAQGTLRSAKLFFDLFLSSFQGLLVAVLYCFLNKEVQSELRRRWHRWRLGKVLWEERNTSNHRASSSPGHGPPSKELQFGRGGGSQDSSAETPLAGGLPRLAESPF
Method: Glucagon eAMP Inhibition Assay
Downstream secondary messenger eAMP induced by glucagon was detected by Cisbio cAMP Dynamic 2 kit. Testing compounds were each prepared as a dimethyl sulfoxide (DMSO) solution at the concentration of 10 mM. To evaluate the potency of compounds in inhibiting the cAMP production, glucagon receptor (GCGR) overexpressed CHO-K1 cells or human primary hepatocytes were treated with compounds with a serial dilution. The cells were re-suspended in Hank's Balanced Salt solution (HBSS) contained 0.1% (w/v) bovine serum albumin and 800 nM 3-isobutyl-1-methylxanthine (IBMX) and seeded into low volume, 384 wells white plate. The diluted compounds were then added into the plate for 30 minutes pre-incubation where the final DMSO concentration was 1%. The cells were stimulated with glucagon at the concentration equaled to EC50 (an indicium of the concentration of a drag that gives half-maximal response) for 30 minutes at room temperature. After incubation, lysis buffer contain cAMP antibody and fluorescence acceptor were added into each well for additional 60 minutes incubation. Results were recorded by Molecular Devices SpectraMax Paradigm with the HTRF Detection Cartridges and the IC50 value of each compound in inhibiting the cAMP production was calculated with non-linear regression based on the amount of cAMP production.

Chain of GCGR (P47871 26-477, species assumed): as above

Row | SMILES | IC50 (GCGR) [nM] | inhibition (GCGR; read-out: percentage of inhibition (number in parenthesis in IC50 binding column)) [%] | IC50 (glucagon receptor (GCGR)) [nM]
1 | CCOC(=O)CCNC(=O)c1ccc(NC(c2ccc(-c3noc(-c4ccc(F)cc4)n3)cc2)C(C)C)cc1 (stereo not shown) [Compound 2-24, ethyl 3-(4-((1-(4-(5-(4-fluorophenyl)-1,2,4-oxadiazol-3-yl)phenyl)-2-methylpropyl)amino)benzamido)propanoate] | 2680 | 35 | 248
2 | CC(C)C(Nc1ccc(-c2nnc(-c3ccc(F)cc3)o2)cc1)c1ccc(C(=O)NCCC(=O)O)cc1 (stereo not shown) [Compound 3-10, 3-(4-(1-((4-(5-(4-fluorophenyl)-1,3,4-oxadiazol-2-yl)phenyl)amino)-2-methylpropyl)benzamido)propanoic acid] | 143 | – | 4500
3 | CCOC(=O)CCNC(=O)c1ccc(N[C@@H](c2ccc(-c3nnc(-c4ccccc4)o3)cc2)C(C)C)cc1 [Compound 1-40, (R)-ethyl 3-(4-(2-methyl-1-(4-(5-phenyl-1,3,4-oxadiazol-2-yl)phenyl)propylamino)benzamido)propanoate] | > 30000 | – | 162
4 | CCCCC(Nc1ccc(C(=O)NCCC(=O)O)cc1)c1ccc(-c2nnc(C(F)(F)F)o2)cc1 (stereo not shown) [Compound 1-14, 3-(4-((1-(4-(5-(trifluoromethyl)-1,3,4-oxadiazol-2-yl)phenyl)pentyl)amino)benzamido)propanoic acid] | 379 | – | 3450
5 | CCCC[C@H](Nc1ccc(C(=O)NCCC(=O)O)cc1)c1ccc(-c2nnc(C(F)(F)F)o2)cc1 [Compound 1-53, (S)-3-(4-((1-(4-(5-(trifluoromethyl)-1,3,4-oxadiazol-2-yl)phenyl)pentyl)amino)benzamido)propanoic acid] | 351 | – | 1870
6 | CC(C)C(Nc1ccc(C(=O)NCCC(=O)O)cc1)c1ccc(-c2nnc(C(F)(F)F)o2)cc1 (stereo not shown) [Compound 1-4, 3-(4-((2-Methyl-1-(4-(5-(trifluoromethyl)-1,3,4-oxadiazol-2-yl)phenyl)propyl)amino)benzamido)propanoic acid] | 433 | – | > 30000
7 | CC(C)CC(Nc1ccc(C(=O)NCCC(=O)O)cc1)c1ccc(-c2noc(-c3cccs3)n2)cc1 (stereo not shown) [Compound 2-14, 3-(4-((3-methyl-1-(4-(5-(thiophen-2-yl)-1,2,4-oxadiazol-3-yl)phenyl)butyl)amino)benzamido)propanoic acid] | 274 | – | 1390
8 | CC(C)CC(Nc1ccc(C(=O)NCCC(=O)O)cc1)c1ccc(-c2noc(C(C)(C)C)n2)cc1 (stereo not shown) [Compound 2-6, 3-(4-((1-(4-(5-(tert-butyl)-1,2,4-oxadiazol-3-yl)phenyl)-3-methylbutyl)amino)benzamido)propanoic acid] | 226 | – | 8630
9 | CCOC(=O)CCNC(=O)c1ccc(N[C@H](c2ccc(-c3nnc(C(F)(F)F)o3)cc2)C(C)C)cc1 [Compound 1-55, ethyl (S)-3-(4-((2-methyl-1-(4-(5-(trifluoromethyl)-1,3,4-oxadiazol-2-yl)phenyl)propyl)amino)benzamido)propanoate] | > 30000 | – | 1360
10 | CCCCC(Nc1ccc(C(=O)NCCC(=O)O)cc1)c1ccc(-c2nnc(C(C)(C)C)o2)cc1 (stereo not shown) [Compound 1-20, 3-(4-((1-(4-(5-(tert-butyl)-1,3,4-oxadiazol-2-yl)phenyl)pentyl)amino)benzamido)propanoic acid] | 562 | – | 15200
11 | CC(C)CC(Nc1ccc(C(=O)NCCC(=O)O)cc1)c1ccc(-c2nnc(-c3ccccc3)o2)cc1 (stereo not shown) [Compound 1-5, 3-(4-((3-Methyl-1-(4-(5-phenyl-1,3,4-oxadiazol-2-yl)phenyl)butyl)amino)benzamido)propanoic acid] | 175 | – | 4130
12 | CCCC[C@H](Nc1ccc(C(=O)NCCC(=O)OCC)cc1)c1ccc(-c2nc3ccccc3o2)cc1 [Compound 4-15, ethyl (S)-3-(4-((1-(4-(benzo[d]oxazol-2-yl)phenyl)pentyl)amino)benzamido)propanoate] | 350 | – | 43
13 | CC(C)C(Nc1ccc(C(=O)NCCC(=O)O)cc1)c1ccc(-c2nnc(C(C)(C)C)o2)cc1 (stereo not shown) [Compound 1-24, 3-(4-((1-(4-(5-(tert-butyl)-1,3,4-oxadiazol-2-yl)phenyl)-2-methylpropyl)amino)benzamido)propanoic acid] | 314 | – | > 30000
14 | CC(C)C(Nc1ccc(C(=O)NCCC(=O)O)cc1)c1ccc(-c2noc(-c3ccc(F)cc3)n2)cc1 (stereo not shown) [Compound 2-25, 3-(4-((1-(4-(5-(4-fluorophenyl)-1,2,4-oxadiazol-3-yl)phenyl)-2-methylpropyl)amino)benzamido)propanoic acid] | 58 | – | 1190
15 | CCCC[C@H](Nc1ccc(C(=O)NCCC(=O)OCC)cc1)c1ccc(-c2noc(C(F)(F)F)n2)cc1 [Compound 2-45, ethyl (S)-3-(4-((1-(4-(5-(trifluoromethyl)-1,2,4-oxadiazol-3-yl)phenyl)pentyl)amino)benzamido)propanoate] | > 30000 | – | 118
16 | CCCCC(Nc1ccc(C(=O)NCCC(=O)O)cc1)c1ccc(-c2noc(-c3cccs3)n2)cc1 (stereo not shown) [Compound 2-13, 3-(4-((1-(4-(5-(thiophen-2-yl)-1,2,4-oxadiazol-3-yl)phenyl)pentyl)amino)benzamido)propanoic acid] | 126 | – | 312
17 | CCOC(=O)CCNC(=O)c1ccc(C(Nc2ccc(-c3nnc(-c4ccc(F)cc4)o3)cc2)C(C)CC)cc1 (stereo not shown) [Compound 3-7, ethyl 3-(4-(1-((4-(5-(4-fluorophenyl)-1,3,4-oxadiazol-2-yl)phenyl)amino)-2-methylbutyl)benzamido)propanoate] | 246 | – | 159
18 | CCCCC(Nc1ccc(-c2nnc(-c3ccccc3)o2)cc1)c1ccc(C(=O)NCCC(=O)O)cc1 (stereo not shown) [Compound 3-1, 3-(4-(1-((4-(5-phenyl-1,3,4-oxadiazol-2-yl)phenyl)amino)pentyl)benzamido)propanoic acid] | 25 | – | 1740
19 | CCCCC(Nc1ccc(C(=O)NCCC(=O)OCC)cc1)c1ccc(-c2nc3ccccc3o2)cc1 (stereo not shown) [Compound 4-2, ethyl 3-(4-((1-(4-(benzo[d]oxazol-2-yl)phenyl)pentyl)amino)benzamido)propanoate] | 799 | – | 119
20 | CCCCC(Nc1ccc(C(=O)NCCC(=O)OCC)cc1)c1ccc(-c2nnc(-c3ccccn3)o2)cc1 (stereo not shown) [Compound 1-15] | 578 | – | 306
21 | CCOC(=O)CCNC(=O)c1ccc(NC(c2ccc(-c3noc(C(C)(C)C)n3)cc2)C(C)C)cc1 (stereo not shown) [Compound 2-1, ethyl 3-(4-((1-(4-(5-(tert-butyl)-1,2,4-oxadiazol-3-yl)phenyl)-2-methylpropyl)amino)benzamido)propanoate] | 2900 | – | 240
22 | CCOC(=O)CCNC(=O)c1ccc(NC(c2ccc(-c3nnc(C(C)(C)C)o3)cc2)C(C)C)cc1 (stereo not shown) [Compound 1-23] | 18700 | – | 180
23 | CCCCC(Nc1ccc(C(=O)NCCC(=O)OCC)cc1)c1ccc(-c2nnc(C(F)(F)F)o2)cc1 (stereo not shown) [Compound 1-33, ethyl 3-(4-((1-(4-(5-(trifluoromethyl)-1,3,4-oxadiazol-2-yl)phenyl)pentyl)amino)benzamido)propanoate] | > 30000 | – | 142
24 | CCCC(Nc1ccc(C(=O)NCCC(=O)O)cc1)c1ccc(-c2nnc(C(F)(F)F)o2)cc1 (stereo not shown) [Compound 1-8, 3-(4-((1-(4-(5-(Trifluoromethyl)-1,3,4-oxadiazol-2-yl)phenyl)butyl)amino)benzamido)propanoic acid] | 651 | – | > 30000
25 | CC(C)C[C@H](Nc1ccc(C(=O)NCCC(=O)O)cc1)c1ccc(-c2nnc(-c3ccccc3)o2)cc1 [Compound 1-61, (S)-3-(4-((3-methyl-1-(4-(5-phenyl-1,3,4-oxadiazol-2-yl)phenyl)butyl)amino)benzamido)propanoic acid] | 201 | – | 3250
26 | CCCC[C@H](Nc1ccc(C(=O)NCCC(=O)O)cc1)c1ccc(-c2noc(-c3ccccc3)n2)cc1 [Compound 2-34, (S)-3-(4-((1-(4-(5-phenyl-1,2,4-oxadiazol-3-yl)phenyl)pentyl)amino)benzamido)propanoic acid] | > 30000 | – | –
